Results: patent US7105718B2, “Compositions and methods for regulating metabolism in plants” (The Regents of the University of Colorado, priority 2000, dated 2006)
Entries after “also recorded” stand apart in the source; their conditions may differ.

Assays:
[1] = tested on: cell wall UCP; assay: Flow cytometry of non-permeabilized cells stained with anti-UCP2 antibody for cell wall UCP; type: cell-based, Chlamydomonas reinhardtii; details: wild type strains of C. reinhardtii treated with norflurazon; FIG. 3
Experimental: Wild type (CC124, mt−) and cell wall-less (CC, mt+) C. reinhardtii were tested for the presence of UCP by flow cytometry. Non-permeabilized cells were stained with anti-UCP2 antibody (Santa Cruz Technologies). Cells were prepared for staining with goat anti-UCP2 antibody (Santa Cruz Pharmaceuticals) followed by fluorescein conjugated anti-rabbit or goat outer step antibodies, respectively. Data were acquired on a Coulter Elite Epics flow cytometer (Coulter, Hialeah, Fla.) and analyzed with CellQuest software, (Becton Dickinson, San Jose, Calif.). Cells were stained for intracellular peroxide using 6-carboxy-2′-7′-dichlorodihydrofluorescein diacetate (DCF-DA, Molecular Probes, Eugene, Oreg.). Briefly, cells were incubated with DCF-DA for 20 minutes, washed twice in PBS containing 5% fetal calf serum and analyzed flow cytometrically. Mitochondrial membrane potential was assessed using Mitotracker Red (CM-H2XROS, Molecular Probes, Eugene, Oreg.). The cells were resuspended in cold, or room temperature, PBS containing 13% fetal calf serum, 0.5 micromolar Mitotracker Red dye was then added to the suspension. The cells were incubated at 37° C. for 20 minutes, pelleted, and resuspended in prewarmed medium for analysis. […] Each sample population was classified for cell size (forward scatter) and complexity (side scatter), gated on a population of interest and evaluated using 40,000 cells.

[2] = tested on: wild type strains of algae; assay: Light sensitivity of wild type algae in the presence of the herbicide; type: cell-based, Chlamydomonas reinhardtii; details: in the presence of norflurazon

CNc1cnn(-c2cccc(C(F)(F)F)c2)c(=O)c1Cl [norflurazon]
cell wall expression of UCP [1]: upregulates cell wall expression of UCP; also recorded: Increased levels of uncoupling protein | light sensitivity of algae [2]: made light-sensitive
